Data published in EP2832347B1, “Method for identifying patchouli odorant materials” (Takasago International Corporation, priority 2013, dated 2015).

Legend:
OR11A1 = target: T1, OR11A1 (Homo sapiens, UniProt Q9GZK7); assay: CRE-luciferase reporter assay in HEKOlf cells transiently transfected with OR11A1; type: cell-based
T1 construct: expressed in transfected cells; host or cells: HEKOlf (HEK293 stably expressing human Galpha-olf and bovine CNGA2)
T1 sequence (Q9GZK7 1-315): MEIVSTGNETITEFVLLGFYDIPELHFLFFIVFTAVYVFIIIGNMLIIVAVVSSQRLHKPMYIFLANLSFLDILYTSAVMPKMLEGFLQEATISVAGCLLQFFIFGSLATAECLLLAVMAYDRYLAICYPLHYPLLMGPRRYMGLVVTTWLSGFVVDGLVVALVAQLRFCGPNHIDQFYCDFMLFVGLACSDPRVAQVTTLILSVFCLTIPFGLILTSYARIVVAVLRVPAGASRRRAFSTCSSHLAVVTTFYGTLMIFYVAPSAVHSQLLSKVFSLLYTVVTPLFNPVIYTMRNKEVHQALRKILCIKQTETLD
Experimental: (§1) The experiments were performed using a HEK293 cell line (deposited at the ATCC under accession n° CRL-1573) stably expressing the Gαolf G-protein and the cyclic nucleotide gated ion channel A2 subunit (CNGA2) (herein called HEKOlf). As described by Shirokova et al., 2005, the human Gαolf cDNA was cloned into the mammalian expression vector pPuro and cDNA for the bovine cyclic nucleotide gated ion channel A2 (CNGA2) subunit was cloned into the mammalian expression vector pcDNA3. Both constructs were transfected using Lipofectamine2000 (Invitrogen) following the manufacturer's instructions. Cellular clones stably expressing Gαolf and CNGA2 were obtained by antibiotic selection with 0.5µg/ml Puromycin and 200µg/ml Geneticin.
All odorants were stored in the dark at 4°C upon delivery. They were prepared at 100mM stock solutions using DMSO as a solvent and stored at -20°C. On the day of the experiment the different stock solutions were directly diluted in the assay buffer (Tyrode's buffer) having the following composition: 5mM KCI, 130mM NaCl, 2mM CaCl2, 5mM NaHCO3, 1mM MgCl2, 20mM HEPES, pH7.4.
(§2) All transient transfections were performed with Lipofectamine 2000 (Invitrogen) according to the manufacturer's protocol. 10µl Lipofectamine 2000 were diluted in 500 µl DMEM and incubated for 5 minutes at room temperature. At the same time, 3µg of plasmid DNA were diluted in 500µl DMEM and added to the Lipofectamine 2000 mix to obtain a final volume of 1000µl. After incubation for a further 30 minutes at room temperature, the DNA-Lipofectamine complex was added to 1000µl of a cell suspension containing 1.600.000 cells/ml. Subsequently, 25µl per well of the complete mixture were seeded in black 384 well polystyrene assay plates. 25µl DMEM containing 20% FBS were added to each well 3 hours post-transfection.
(§3) The cDNAs for all olfactory receptors and an empty control vector were co-transfected with pGL4.29 (Promega). The pGL4.29 vector contains a cyclic adenosine monophosphate (cAMP) response element (CRE) that drives the transcription of the luciferase reporter gene luc2P (Photinus pyralis). luc2P is a synthetically-derived luciferase sequence with humanized codon optimization that is designed for high expression and reduced anomalous transcription.
In this assay, the interaction of an odorant with its cognate olfactory receptor leads to the activation of the human Gαolf G-protein. Gαolf is a stimulatory G-protein (Gαs) and activates adenylate cyclase, which converts adenosine triphosphate (ATP) into cAMP. Therefore, the activity of the transcribed luciferase can be used as an indication of olfactory receptor activation. 24 hours post-transfection the medium was removed from the transfected cells and 30 µl Tyrode's buffer containing the diluted odorants were added and incubated for 6 hours at 37°C. The cells were then transferred into an automated fluorometric imaging plate reader (FLIPR^TETRA, Molecular Devices). Subsequently, 25µl of a mixture composed of Triton X-100 and luciferin (1:1) were added. The addition of this mixture led to cell lyses and allowed interaction of the luciferase with its substrate luciferin resulting in a detectable emission of light.
The data obtained from different well replicates were analyzed with Excel, ScreenWorks, and SigmaPlot 10. The responses of each receptor to the odorants were divided by the mean responses of the receptor towards Tyrode's buffer (fold of change FOC1). The specificity of FOC1 was checked by comparing with a second FOC (FOC2) obtained by stimulating a control sample, consisting in an empty expression vector, with the same odorants and Tyrode's buffer. The mean and standard deviation of the resulting fold of change values were calculated and plotted in vertical bar charts or concentration-response curves fitted by the SigmaPlot 10 software.

[1] = test system: seven other OR11A1-related olfactory receptors; assay: CRE-luciferase reporter assay on OR11A1 related receptors; type: cell-based, human; settings: 10/30/100 µM
Experimental: as §1, §2, §3
In this assay, the interaction of an odorant with its cognate olfactory receptor leads to the activation of the human Gαolf G-protein. Gαolf is a stimulatory G-protein (Gαs) and activates adenylate cyclase, which converts adenosine triphosphate (ATP) into cAMP. Therefore, the activity of the transcribed luciferase can be used as an indication of olfactory receptor activation. […] The cells were then transferred into an automated fluorometric imaging plate reader (FLIPR^TETRA, Molecular Devices). […]
The data obtained from different well replicates were analyzed with Excel, ScreenWorks, and SigmaPlot 10. […] The mean and standard deviation of the resulting fold of change values were calculated and plotted in vertical bar charts or concentration-response curves fitted by the SigmaPlot 10 software. […]

SMILES: C[C@H]1CC[C@@]2(O)C(C)(C)[C@@H]3CC[C@@]2(C)[C@H]1C3 [Patchouli alcohol]
- activation of OR11A1 (OR11A1; Example 3, 10/30/100 µM): strongly activated
- EC50 (OR11A1; Example 4, Table 5, 0.03-100 µM tested): 12.1 ± 1.7 µM
- Potency and efficacy on OR11A1 (comparison between odorants) (OR11A1; Example 4, 0.1 to 100 µM (Figure 6)): comparable
- activation of OR11A1 (OR11A1; Example 4, 3, 10 and 30 µM (Figure 5)): activated
- fold of change ([1]; Example 3, figure 4): around 1
- response of seven other OR11A1-related olfactory receptors ([1]; Example 3): none of the seven other OR11A1-related olfactory receptors responded
